Measurements taken from publication PMC6941357, “An in vitro toolbox to accelerate anti-malarial drug discovery and development” (Malaria Journal, 2020).

Experiments:
[1] = Plasma protein binding via ultracentrifugation (UC); assay type: in vitro ADME, human; settings: pH 7.4
Summary of the method: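 Unbound fraction from ultracentrifugation of spiked pooled donor plasma, supernate pH checked and sampled for Cunbound. Ctotal and degradation taken from 37 °C control tubes at start and end; all samples mixed 1:1 with blank plasma or pH 7.4 buffer before analysis on shared calibration.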

[2] = Binding to human liver microsomes via ultracentrifugation; assay type: in vitro ADME; settings: human, liver microsomes, pH 7.4, 0.4 mg/mL protein, read-out: Fraction unbound, HLM
Summary of the method: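 Unbound fraction by ultracentrifugation: Cunbound measured in protein-free supernate, Ctotal from spiked tubes held at 37 °C, sampled at start and end to check degradation. Matrix was 0.4 mg/mL human liver microsomal protein, 0.1 M phosphate pH 7.4; matrix-matched analysis against one calibration curve.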

[3] = Octanol/pH 7.4 buffer partition coefficient, shake flask; settings: pH 7.4
Summary of the method: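 Both phases were measured by LC-MS, the aqueous phase after re-centrifugation, and the partition coefficient was taken as the octanol-to-buffer concentration ratio over two sampling times. Equal volumes of octanol, holding compound at two dilutions of a 3-30 mg/mL stock, and pH 7.4 phosphate/NaCl buffer were mixed at 37 °C.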

CYP3A4 = CYP3A4 (Homo sapiens, UniProt P08684); assay: Cytochrome P450 inhibition in human liver microsomes; settings: for IC50: highest concentration tested 20 µM; for inhibition at 20 µM: human
Chain of CYP3A4 (P08684 whole entry, canonical isoform): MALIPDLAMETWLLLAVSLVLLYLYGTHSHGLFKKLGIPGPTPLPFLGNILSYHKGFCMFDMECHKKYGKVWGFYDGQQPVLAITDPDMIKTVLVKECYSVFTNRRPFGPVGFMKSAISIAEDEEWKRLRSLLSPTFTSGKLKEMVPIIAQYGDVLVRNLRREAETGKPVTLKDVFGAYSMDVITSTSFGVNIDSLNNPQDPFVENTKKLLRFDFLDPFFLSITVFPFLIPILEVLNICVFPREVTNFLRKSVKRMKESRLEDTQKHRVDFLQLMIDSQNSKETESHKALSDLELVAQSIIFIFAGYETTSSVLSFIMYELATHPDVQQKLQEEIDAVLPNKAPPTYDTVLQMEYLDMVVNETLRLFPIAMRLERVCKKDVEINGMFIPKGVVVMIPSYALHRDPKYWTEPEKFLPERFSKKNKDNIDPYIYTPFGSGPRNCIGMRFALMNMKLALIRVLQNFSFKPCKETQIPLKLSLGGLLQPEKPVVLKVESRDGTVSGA
Summary of the method: (§1)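 Each compound is incubated with human liver microsomes and a probe substrate whose conversion is mediated by one CYP isoform. Reactions are then quenched with ice-cold acetonitrile, and the metabolite is determined by LC–MS.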

CYP2C9 = CYP2C9 (Homo sapiens, UniProt P11712); assay: as above
Chain of CYP2C9 (P11712 whole entry): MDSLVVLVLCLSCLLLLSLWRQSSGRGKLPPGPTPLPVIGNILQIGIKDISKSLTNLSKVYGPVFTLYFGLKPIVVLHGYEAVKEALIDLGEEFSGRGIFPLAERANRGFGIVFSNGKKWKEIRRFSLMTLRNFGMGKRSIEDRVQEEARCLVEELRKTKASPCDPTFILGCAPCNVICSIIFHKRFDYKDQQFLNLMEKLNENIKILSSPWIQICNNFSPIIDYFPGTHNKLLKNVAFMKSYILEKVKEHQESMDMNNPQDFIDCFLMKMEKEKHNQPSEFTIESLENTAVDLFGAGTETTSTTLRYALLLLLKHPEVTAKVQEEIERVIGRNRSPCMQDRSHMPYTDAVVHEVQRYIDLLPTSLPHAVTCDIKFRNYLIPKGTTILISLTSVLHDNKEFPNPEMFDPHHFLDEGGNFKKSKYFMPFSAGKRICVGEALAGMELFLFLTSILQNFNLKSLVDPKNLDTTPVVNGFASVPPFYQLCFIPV
Summary of the method: as §1

CYP2C19 = CYP2C19 (Homo sapiens, UniProt P33261); assay: as above; settings: for inhibition at 20 µM: human, pH 7.4
Chain of CYP2C19 (P33261 whole entry): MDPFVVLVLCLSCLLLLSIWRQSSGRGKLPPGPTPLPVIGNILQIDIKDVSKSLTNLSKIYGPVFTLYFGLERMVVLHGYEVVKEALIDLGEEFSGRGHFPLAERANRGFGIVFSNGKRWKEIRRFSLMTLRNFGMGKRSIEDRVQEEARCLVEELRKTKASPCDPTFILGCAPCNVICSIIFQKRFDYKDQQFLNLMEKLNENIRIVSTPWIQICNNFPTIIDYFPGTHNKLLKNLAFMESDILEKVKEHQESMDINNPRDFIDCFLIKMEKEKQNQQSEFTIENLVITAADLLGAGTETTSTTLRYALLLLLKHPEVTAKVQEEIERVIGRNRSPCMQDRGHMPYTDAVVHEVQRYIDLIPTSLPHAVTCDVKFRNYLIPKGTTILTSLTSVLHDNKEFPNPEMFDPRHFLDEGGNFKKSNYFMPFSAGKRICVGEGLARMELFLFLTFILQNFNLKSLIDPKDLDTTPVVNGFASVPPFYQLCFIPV
Summary of the method: as §1

CYP2D6 = CYP2D6 (Homo sapiens, UniProt P10635); assay: as above
Chain of CYP2D6 (P10635 whole entry): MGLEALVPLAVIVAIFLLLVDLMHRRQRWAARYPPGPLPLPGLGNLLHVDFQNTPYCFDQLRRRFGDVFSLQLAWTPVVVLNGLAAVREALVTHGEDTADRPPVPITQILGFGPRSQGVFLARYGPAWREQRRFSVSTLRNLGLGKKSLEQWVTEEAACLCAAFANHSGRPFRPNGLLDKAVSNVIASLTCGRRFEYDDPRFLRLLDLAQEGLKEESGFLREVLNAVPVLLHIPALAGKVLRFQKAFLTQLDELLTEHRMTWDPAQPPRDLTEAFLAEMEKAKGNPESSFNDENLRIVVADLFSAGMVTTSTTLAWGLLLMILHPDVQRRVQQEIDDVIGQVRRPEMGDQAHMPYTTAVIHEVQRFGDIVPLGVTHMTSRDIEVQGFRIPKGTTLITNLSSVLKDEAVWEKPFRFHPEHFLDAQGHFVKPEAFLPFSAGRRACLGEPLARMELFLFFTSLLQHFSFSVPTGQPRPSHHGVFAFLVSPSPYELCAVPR
Summary of the method: as §1

[4] = In vitro metabolism (metabolic stability) in human liver microsomes; settings: human, liver microsomes, pH 7.4, HLM CLint, human liver microsomes; average of n = 2 replicates; < 7 means < 15% loss over 60 min
Summary of the method: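 Intrinsic clearance (µL/min/mg protein) came from the first-order substrate-depletion rate in human liver microsomes, using only the initial log-linear phase where kinetics deviated. Samples were quenched at 2, 5, 15, 30 and 60 min and quantified by LC–MS. Unbound CLint was obtained by dividing by microsomal fu.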

[5] = human, neat pooled plasma, ultracentrifugation, neat plasma, read-out: Fraction unbound, human plasma
[6] = CYP3A4 (midaz) IC50, human liver microsomes, CYP3A4 (midaz)
[7] = CYP3A4 (test) IC50, human liver microsomes, CYP3A4 (test)
[8] = microsomes, pH 7.4, CYP3A4 (midaz) % inhibition at max conc

SMILES | fraction unbound at […] [1, 5] | fraction unbound at […] [2] | logD ([3]; octanol/pH 7.4 buffer) | IC50 (CYP3A4; [6]) [µM] | IC50 (CYP3A4; [7]) [µM] | inhibition at 20 µM (CYP3A4; [8]) [%] | IC50 (CYP2C9) [µM] | IC50 (CYP2C19) [µM] | IC50 (CYP2D6) [µM] | Ki (CYP2D6) [µM] | microsomal CLint at 1 µM [4] [µL/min/mg] | inhibition at 20 µM (CYP2C19; microsomes) [%] | further results
COc1ccc2nc3cc(Cl)ccc3c(Nc3cc(CN4CCCC4)c(O)c(CN4CCCC4)c3)c2n1 [Pyronaridine] | 0.21 | 0.29 ± 0.018 | 0.23 | > 20 | > 20 | 28 | > 20 | > 20 | 1.2 | 0.75 | 8.6 | – | CYP3A4 (test) % inhibition at max conc (CYP3A4; microsomes): nmi; CYP2C9 % inhibition at max conc (CYP2C9; microsomes): nmi; CYP2C19 % inhibition at max conc (CYP2C19; microsomes): nmi
N#Cc1cc(NC(=O)[C@H]2c3ccccc3C(=O)N(CC(F)(F)F)[C@@H]2c2cccnc2)ccc1F [SJ733] | 0.17 | 0.58 ± 0.069 | 3.9 | > 20 | > 20 | 33 | > 20 | > 20 | 16 | 9.6 | 142 | 38 | inhibition at 20 µM (CYP3A4; microsomes, pH 7.4, CYP3A4 (test) % inhibition at max conc): 37%; inhibition at 20 µM (CYP2C9; human, microsomes, pH 7.4): 33%
COc1cc(C)c2c(Oc3cccc(C(F)(F)F)c3)c(OC)cc(NC(C)CCCN)c2n1 (centres unmarked) [Tafenoquine] | 0.11 | 0.002 ± 0.0003 | 4.24 | > 20 | 3.8 | 40 | 14 | > 20 | > 20 | – | < 7 | 42 | fraction unbound at […] ([1]; human plasma, fraction unbound, read-out: Plasma fu): 0.0007; logD ([3]; octanol/pH 7.4 phosphate buffered saline): 4.24; Ki (CYP3A4; CYP3A4 (test) Ki, human liver microsomes, CYP3A4 (test)): 2.3 µM; Ki (CYP2C9): 10 µM; inhibition at 20 µM (CYP2D6; human, microsomes, pH 7.4): 35%
